Measurements taken from paper PMC3639963, “A New Class of Small Molecule Inhibitor of BMP Signaling” (PLoS ONE, 2013).

Tests used:
Experiment in all cases: DSF thermal shift
Type in all cases: binding
Details in all cases: 10 µM inhibitor; read-out: Tm shift
[1] = target: T1, CHEK2 (Homo sapiens, UniProt O96017)
T1 construct: purchased Nanosyn (enzymatic panel); SGC in-house recombinant human kinases (DSF panel); Invitrogen (ALK1-6)
Description: (§1) Thermal melting experiments were performed using a Real Time PCR machine Mx3005p (Stratagene) with a protein concentration of 1–2 µM and 10 µM inhibitor as described previously, [25]. […] Recombinant human kinases for DSF screening were prepared by SGC using published methods, [36].

[2] = target: T2, Haspin (Homo sapiens, UniProt Q8TF76)
T2 construct: purchased Nanosyn (enzymatic panel); SGC in-house recombinant human kinases (DSF panel); Invitrogen (ALK1-6)
T2 sequence (Q8TF76 1-798): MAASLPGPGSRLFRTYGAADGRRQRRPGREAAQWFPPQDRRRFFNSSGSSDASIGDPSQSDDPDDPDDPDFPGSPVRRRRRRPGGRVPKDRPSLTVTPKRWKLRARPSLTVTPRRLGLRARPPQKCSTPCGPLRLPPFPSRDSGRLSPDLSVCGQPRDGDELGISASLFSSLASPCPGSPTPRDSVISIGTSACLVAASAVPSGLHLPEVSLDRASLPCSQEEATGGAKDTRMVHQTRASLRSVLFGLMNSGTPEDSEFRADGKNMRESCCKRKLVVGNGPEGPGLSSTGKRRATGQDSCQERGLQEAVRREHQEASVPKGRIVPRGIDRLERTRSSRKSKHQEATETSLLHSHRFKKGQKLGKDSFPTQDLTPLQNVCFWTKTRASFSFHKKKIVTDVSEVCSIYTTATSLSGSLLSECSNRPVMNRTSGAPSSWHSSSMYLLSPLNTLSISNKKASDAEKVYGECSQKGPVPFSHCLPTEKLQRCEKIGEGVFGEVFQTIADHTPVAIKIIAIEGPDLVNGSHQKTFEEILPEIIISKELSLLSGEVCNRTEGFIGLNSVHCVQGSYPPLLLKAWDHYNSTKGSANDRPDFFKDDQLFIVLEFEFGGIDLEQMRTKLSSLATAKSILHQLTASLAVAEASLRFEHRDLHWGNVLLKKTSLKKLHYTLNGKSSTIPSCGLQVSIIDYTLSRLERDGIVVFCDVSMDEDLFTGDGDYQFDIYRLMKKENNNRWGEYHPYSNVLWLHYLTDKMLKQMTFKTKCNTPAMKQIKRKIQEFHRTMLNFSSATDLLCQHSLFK
Description: as §1

[3] = target: T3, CLK3 (Homo sapiens, UniProt P49761)
T3 construct: purchased Nanosyn (enzymatic panel); SGC in-house recombinant human kinases (DSF panel); Invitrogen (ALK1-6)
T3 sequence (P49761 whole entry): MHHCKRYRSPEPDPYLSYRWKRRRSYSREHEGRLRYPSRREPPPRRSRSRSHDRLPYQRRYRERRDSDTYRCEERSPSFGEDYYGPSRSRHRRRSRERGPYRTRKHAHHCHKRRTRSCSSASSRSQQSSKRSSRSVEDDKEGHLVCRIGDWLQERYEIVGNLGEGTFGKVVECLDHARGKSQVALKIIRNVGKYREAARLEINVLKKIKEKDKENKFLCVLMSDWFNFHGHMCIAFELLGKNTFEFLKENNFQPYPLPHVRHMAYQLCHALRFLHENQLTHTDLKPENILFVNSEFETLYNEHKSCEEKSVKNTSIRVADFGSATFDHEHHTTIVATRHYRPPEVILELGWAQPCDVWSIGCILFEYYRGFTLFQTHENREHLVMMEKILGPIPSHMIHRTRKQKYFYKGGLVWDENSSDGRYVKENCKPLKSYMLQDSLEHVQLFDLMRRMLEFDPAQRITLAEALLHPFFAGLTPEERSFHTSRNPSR
Description: as §1

[4] = target: T4, AMPKα2 (Homo sapiens, UniProt P54646)
T4 construct: purchased Nanosyn (enzymatic panel); SGC in-house recombinant human kinases (DSF panel); Invitrogen (ALK1-6)
T4 sequence (P54646 whole entry): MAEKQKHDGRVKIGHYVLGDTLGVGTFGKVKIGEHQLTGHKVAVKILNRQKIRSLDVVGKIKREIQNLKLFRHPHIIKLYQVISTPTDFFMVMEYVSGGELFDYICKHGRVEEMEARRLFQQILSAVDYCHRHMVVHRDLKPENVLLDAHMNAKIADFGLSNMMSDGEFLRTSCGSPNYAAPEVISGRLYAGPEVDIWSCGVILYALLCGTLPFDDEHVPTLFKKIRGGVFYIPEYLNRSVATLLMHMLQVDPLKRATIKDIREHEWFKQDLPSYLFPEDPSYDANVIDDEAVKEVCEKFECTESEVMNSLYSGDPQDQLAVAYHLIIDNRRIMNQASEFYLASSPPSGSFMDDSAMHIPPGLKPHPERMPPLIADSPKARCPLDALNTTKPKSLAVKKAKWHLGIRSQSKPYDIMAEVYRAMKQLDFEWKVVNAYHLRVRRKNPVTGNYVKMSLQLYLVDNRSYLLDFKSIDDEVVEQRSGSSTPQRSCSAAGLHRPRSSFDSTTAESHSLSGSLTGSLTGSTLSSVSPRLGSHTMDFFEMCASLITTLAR
Description: as §1

[5] = target: T5, OSR1 (Homo sapiens, UniProt O95747)
T5 construct: purchased Nanosyn (enzymatic panel); SGC in-house recombinant human kinases (DSF panel); Invitrogen (ALK1-6)
Description: as §1

[6] = target: T6, PTK7 (Homo sapiens, UniProt Q13308)
T6 construct: purchased Nanosyn (enzymatic panel); SGC in-house recombinant human kinases (DSF panel); Invitrogen (ALK1-6)
T6 sequence (Q13308 31-1070): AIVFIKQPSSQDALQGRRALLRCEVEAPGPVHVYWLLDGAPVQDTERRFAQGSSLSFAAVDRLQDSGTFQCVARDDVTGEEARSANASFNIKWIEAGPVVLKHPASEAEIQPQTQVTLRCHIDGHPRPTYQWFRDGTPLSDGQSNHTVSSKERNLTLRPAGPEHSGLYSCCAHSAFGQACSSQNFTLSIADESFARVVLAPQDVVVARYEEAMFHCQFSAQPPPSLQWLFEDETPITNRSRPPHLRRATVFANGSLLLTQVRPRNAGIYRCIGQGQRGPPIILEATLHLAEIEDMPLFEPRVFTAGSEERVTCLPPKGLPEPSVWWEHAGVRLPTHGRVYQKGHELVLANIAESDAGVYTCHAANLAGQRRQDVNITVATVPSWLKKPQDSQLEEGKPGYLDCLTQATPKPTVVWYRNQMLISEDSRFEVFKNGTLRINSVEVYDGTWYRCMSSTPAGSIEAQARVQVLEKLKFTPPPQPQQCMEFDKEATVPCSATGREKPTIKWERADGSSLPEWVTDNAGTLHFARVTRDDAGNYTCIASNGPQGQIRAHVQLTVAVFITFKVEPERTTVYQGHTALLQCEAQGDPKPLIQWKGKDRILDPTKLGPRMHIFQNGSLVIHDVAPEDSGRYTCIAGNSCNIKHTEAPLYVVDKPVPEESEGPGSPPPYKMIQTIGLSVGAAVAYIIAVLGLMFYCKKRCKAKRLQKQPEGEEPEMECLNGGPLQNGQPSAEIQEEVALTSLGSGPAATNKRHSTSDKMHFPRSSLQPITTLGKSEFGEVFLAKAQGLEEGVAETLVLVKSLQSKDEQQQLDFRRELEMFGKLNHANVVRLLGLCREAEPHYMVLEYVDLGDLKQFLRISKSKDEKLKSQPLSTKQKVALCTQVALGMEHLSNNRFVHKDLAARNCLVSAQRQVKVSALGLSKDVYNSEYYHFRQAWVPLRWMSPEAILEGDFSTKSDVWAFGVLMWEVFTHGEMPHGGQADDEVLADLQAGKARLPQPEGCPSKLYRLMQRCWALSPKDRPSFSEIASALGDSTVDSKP
Description: as §1

[7] = target: T7, JNK2 (Homo sapiens, UniProt P45984)
T7 construct: purchased Nanosyn (enzymatic panel); SGC in-house recombinant human kinases (DSF panel); Invitrogen (ALK1-6)
T7 sequence (P45984 whole entry): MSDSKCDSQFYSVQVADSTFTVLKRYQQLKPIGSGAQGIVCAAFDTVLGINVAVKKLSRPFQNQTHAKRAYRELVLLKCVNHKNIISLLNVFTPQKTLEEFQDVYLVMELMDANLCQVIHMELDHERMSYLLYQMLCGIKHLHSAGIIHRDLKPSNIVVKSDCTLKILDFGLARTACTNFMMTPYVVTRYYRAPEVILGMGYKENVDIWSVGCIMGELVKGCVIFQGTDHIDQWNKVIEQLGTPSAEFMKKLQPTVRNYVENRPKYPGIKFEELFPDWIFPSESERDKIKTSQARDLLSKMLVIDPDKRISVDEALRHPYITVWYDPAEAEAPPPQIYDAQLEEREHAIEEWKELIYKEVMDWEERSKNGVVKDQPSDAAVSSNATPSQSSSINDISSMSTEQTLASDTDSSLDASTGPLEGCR
Description: as §1

[8] = target: T8, ActRIIA (Homo sapiens, UniProt P27037)
T8 construct: purchased Nanosyn (enzymatic panel); SGC in-house recombinant human kinases (DSF panel); Invitrogen (ALK1-6)
T8 sequence (P27037 20-513): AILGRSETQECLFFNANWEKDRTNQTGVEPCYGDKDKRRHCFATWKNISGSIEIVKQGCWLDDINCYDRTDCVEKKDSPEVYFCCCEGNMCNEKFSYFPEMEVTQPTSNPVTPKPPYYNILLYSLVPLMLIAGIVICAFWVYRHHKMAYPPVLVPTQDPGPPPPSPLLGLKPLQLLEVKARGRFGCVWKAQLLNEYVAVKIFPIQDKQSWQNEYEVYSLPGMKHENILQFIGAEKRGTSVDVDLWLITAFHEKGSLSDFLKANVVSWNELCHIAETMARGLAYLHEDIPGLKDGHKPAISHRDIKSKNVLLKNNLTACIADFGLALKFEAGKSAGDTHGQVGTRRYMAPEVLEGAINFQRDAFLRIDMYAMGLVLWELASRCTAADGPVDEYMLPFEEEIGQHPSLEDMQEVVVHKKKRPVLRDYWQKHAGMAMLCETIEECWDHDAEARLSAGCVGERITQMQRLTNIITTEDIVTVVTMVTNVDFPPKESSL
Description: as §1

[9] = target: T9, MRCKβ (Homo sapiens, UniProt Q9Y5S2)
T9 construct: purchased Nanosyn (enzymatic panel); SGC in-house recombinant human kinases (DSF panel); Invitrogen (ALK1-6)
Description: as §1

[10] = target: T10, CDK2 (Homo sapiens, UniProt P24941)
T10 construct: purchased Nanosyn (enzymatic panel); SGC in-house recombinant human kinases (DSF panel); Invitrogen (ALK1-6)
Description: as §1

[11] = target: T11, JNK1 (Homo sapiens, UniProt P45983)
T11 construct: purchased Nanosyn (enzymatic panel); SGC in-house recombinant human kinases (DSF panel); Invitrogen (ALK1-6)
Description: as §1

[12] = target: T12, RSK1 (Homo sapiens, UniProt Q15418)
T12 construct: purchased Nanosyn (enzymatic panel); SGC in-house recombinant human kinases (DSF panel); Invitrogen (ALK1-6)
T12 sequence (Q15418 whole entry): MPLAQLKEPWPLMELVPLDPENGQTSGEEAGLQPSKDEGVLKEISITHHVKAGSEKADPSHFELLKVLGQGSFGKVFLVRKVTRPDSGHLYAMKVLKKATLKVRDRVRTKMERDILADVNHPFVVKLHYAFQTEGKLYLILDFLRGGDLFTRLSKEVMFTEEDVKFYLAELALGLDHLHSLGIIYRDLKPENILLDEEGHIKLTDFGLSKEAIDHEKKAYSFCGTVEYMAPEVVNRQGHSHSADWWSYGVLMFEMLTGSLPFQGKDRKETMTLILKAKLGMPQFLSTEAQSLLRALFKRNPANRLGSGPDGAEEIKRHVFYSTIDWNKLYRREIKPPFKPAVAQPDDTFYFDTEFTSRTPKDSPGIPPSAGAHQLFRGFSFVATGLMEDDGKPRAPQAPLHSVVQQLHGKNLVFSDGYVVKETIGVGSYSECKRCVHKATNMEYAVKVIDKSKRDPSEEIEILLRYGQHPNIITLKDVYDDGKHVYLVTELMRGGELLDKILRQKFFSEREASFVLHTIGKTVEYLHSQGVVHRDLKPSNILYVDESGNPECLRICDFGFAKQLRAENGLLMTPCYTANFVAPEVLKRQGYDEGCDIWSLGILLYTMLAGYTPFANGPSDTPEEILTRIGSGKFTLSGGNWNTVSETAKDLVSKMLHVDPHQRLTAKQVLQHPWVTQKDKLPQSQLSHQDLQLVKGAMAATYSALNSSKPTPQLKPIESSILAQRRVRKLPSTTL
Description: as §1

[13] = target: T13, FES (Homo sapiens, UniProt P07332)
T13 construct: purchased Nanosyn (enzymatic panel); SGC in-house recombinant human kinases (DSF panel); Invitrogen (ALK1-6)
T13 sequence (P07332 whole entry): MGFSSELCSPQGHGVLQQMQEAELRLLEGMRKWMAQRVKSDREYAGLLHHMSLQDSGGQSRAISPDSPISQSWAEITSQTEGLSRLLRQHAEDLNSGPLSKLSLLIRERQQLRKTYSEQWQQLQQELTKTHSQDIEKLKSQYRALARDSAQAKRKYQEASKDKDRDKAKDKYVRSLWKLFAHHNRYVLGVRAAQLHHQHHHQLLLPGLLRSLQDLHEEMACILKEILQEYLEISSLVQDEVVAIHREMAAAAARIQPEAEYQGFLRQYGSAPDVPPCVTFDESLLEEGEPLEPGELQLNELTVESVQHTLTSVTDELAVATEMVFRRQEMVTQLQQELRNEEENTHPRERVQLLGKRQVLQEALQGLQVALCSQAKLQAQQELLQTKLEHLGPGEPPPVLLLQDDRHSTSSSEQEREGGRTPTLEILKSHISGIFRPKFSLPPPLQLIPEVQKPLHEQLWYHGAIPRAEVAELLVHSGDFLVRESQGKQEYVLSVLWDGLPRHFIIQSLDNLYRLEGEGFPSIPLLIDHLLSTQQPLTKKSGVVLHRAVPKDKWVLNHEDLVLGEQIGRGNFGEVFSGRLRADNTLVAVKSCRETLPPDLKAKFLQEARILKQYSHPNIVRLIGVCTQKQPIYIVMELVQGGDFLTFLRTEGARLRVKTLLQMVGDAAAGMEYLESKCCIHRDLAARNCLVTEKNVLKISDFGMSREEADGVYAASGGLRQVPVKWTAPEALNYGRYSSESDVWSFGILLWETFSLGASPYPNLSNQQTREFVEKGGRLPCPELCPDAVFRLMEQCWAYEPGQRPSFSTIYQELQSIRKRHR
Description: as §1

[14] = target: T14, PKN1 (Homo sapiens, UniProt Q16512)
T14 construct: purchased Nanosyn (enzymatic panel); SGC in-house recombinant human kinases (DSF panel); Invitrogen (ALK1-6)
T14 sequence (Q16512 whole entry): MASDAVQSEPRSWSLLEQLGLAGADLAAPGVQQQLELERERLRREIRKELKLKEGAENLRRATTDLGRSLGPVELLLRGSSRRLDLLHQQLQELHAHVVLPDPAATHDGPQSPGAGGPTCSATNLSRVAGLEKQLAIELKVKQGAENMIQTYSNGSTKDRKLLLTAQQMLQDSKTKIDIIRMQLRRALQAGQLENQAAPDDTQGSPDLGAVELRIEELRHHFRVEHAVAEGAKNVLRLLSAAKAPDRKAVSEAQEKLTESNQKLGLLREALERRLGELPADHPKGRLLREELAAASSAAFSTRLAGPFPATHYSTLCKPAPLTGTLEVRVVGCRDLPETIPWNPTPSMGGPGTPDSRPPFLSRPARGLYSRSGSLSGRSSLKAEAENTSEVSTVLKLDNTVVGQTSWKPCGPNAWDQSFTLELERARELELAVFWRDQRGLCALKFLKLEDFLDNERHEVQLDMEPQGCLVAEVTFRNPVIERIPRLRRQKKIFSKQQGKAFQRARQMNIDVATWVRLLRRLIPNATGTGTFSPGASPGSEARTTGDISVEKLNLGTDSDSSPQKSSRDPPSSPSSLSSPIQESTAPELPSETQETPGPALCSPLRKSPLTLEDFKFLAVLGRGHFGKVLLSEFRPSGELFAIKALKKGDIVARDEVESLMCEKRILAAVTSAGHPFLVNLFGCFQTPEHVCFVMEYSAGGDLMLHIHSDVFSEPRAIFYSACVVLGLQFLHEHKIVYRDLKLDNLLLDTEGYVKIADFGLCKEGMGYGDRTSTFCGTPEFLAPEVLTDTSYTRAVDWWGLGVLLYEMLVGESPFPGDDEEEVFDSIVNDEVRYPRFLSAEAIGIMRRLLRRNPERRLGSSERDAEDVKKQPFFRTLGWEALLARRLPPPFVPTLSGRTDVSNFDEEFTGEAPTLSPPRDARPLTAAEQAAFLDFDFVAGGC
Description: as §1

T1 sequence (O96017 whole entry): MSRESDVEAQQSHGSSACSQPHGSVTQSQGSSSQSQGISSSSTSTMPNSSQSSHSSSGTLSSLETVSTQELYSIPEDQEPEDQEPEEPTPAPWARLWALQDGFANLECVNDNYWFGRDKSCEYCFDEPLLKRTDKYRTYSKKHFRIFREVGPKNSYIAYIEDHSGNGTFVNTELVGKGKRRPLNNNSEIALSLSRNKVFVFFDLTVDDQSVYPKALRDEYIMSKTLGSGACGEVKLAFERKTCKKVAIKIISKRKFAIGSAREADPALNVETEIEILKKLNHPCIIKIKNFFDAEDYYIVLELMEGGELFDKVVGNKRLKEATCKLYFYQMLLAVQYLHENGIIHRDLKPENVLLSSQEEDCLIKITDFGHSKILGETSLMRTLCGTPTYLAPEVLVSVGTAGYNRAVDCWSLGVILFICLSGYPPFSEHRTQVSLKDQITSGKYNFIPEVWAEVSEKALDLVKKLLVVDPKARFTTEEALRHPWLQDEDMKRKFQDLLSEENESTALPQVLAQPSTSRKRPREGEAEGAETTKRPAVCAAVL

Row | Compound | ΔTm at 10 µM [1] [°C] | ΔTm at 10 µM [2] [°C] | ΔTm at 10 µM [3] [°C] | ΔTm at 10 µM [4] [°C] | ΔTm at 10 µM [5] [°C] | ΔTm at 10 µM [6] [°C] | ΔTm at 10 µM [7] [°C] | ΔTm at 10 µM [8] [°C] | ΔTm at 10 µM [9] [°C] | ΔTm at 10 µM [10] [°C] | ΔTm at 10 µM [11] [°C] | ΔTm at 10 µM [12] [°C] | ΔTm at 10 µM [13] [°C] | ΔTm at 10 µM [14] [°C]
1 | c1cc(-c2cnn3cc(-c4ccc(OCCN5CCCCC5)cc4)cnc23)ccn1 [Dorsomorphin] | 1.7 | 2.3 | 3.7 | 7.1 | 1.6 | -1.2 | 0.4 | 6.1 | 0 | 2.5 | 0 | 2.8 | 0.5 | 2.3
2 | COc1cc(-c2cc(-c3cccc(O)c3)cnc2N)cc(OC)c1OC [K02288, 3-[6-amino-5-(3,4,5-trimethoxy-phenyl)-pyridin-3-yl]-phenol] | 0 | 0.3 | 0 | 1.2 | 0 | -1.3 | -0.1 | 8.3 | 0.4 | 0.1 | 0.2 | 1.1 | 0.4 | 0.5
3 | c1ccc2c(-c3cnn4cc(-c5ccc(N6CCNCC6)cc5)cnc34)ccnc2c1 [LDN-193189] | 1.4 | 0.4 | 0.7 | 8.3 | 0.9 | -0.3 | -0.6 | 8.6 | 0.6 | 0.7 | 0.5 | 3.3 | 0.4 | 2.3
